Each structure is given as a SMILES string. Where only a bound is given, the exact number is not on record here.

Data set [1] is described as follows: Lipophilicity log D7.4, shake flask method, n-octanol/PBS. Conditions: n-octanol/PBS 0.01 M, pH 7.4, room temperature. The data set is classed as physicochemical. As for the experimental part: The most efficient protocol for the manual radiosynthesis of [^18F]RM365 was transferred to an automated synthesis module (Elysia-Raytest radiosynthesizer). For the biological evaluation, [^18F]RM365 was obtained with a moderate radiochemical yield of about 5% and high radiochemical purities (>99%), molar activity of about 80 GBq/μmol in a total synthesis time of 60 min (n = 6) starting with activities ranging from 8 to 13 GBq. […] RP and chiral HPLC analysis of the final product coeluted with the corresponding reference compound RM365 confirmed the identity and enantiopurity of the radioligand (Figure 5B). A log D7.4 of 3.0 ± 0.1 was determined by the shake flask method.[80],[81]
Log D7.4 of [^18F]RM365 was experimentally determined in n-octanol/PBS, 0.01 M, pH 7.4, at room temperature by the shake flask method. The measurement was performed twice in triplicate.[87]

A further data set concerns the target T1, rat CB2R (Rattus norvegicus, UniProt Q9QZN9).
T1 construct: one spleen from a female SPRD rat expressing high levels of the receptor in the leukocytes; from tissue; host or cells: rat spleen (female SPRD rat; autoradiography also described with male F433 rats)
T1 sequence (Q9QZN9 1-360): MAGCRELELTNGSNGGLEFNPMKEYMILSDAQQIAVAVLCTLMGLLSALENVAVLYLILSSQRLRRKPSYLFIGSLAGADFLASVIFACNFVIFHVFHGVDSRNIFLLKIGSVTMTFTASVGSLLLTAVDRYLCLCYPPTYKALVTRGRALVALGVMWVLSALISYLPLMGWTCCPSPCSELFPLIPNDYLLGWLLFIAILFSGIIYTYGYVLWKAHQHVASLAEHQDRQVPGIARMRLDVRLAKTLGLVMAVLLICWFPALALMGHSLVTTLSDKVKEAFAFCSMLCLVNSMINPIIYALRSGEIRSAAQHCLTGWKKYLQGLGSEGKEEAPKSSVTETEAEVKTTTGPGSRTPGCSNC
Put plainly: Homologous competition binding of [18F]RM365 / RM365 on rat spleen homogenate. The text has this: To complement the indirect determination of the affinity of RM365 toward the CB2R in vitro, we performed a direct binding study with the radiofluorinated ligand using preparations of CHO cells stably transfected with the cloned human receptor and one spleen from a female SPRD rat expressing high levels of the receptor in the leukocytes.[12] The results of the homologous competition study shown in Figure 6 confirm the good affinity of [^18F]RM365 toward the human CB2R with a KD value of about 2 nM. […] Furthermore, the measurement signal obtained from the incubation of [^18F]RM365 with the homogenate of rat spleen was in the range of the values obtained for the nonspecific binding of the radioligand toward the preparation of CB2R-transfected CHO cells. We conclude that RM365 binds the rat CB2R with lower affinity than the human CB2R but expect no significant interactions of the radioligand with nonspecific binding sites.[82] […]
The nonspecific binding of the respective radioligand was determined by coincubation with CP55,940 (final concentration 10^–5 M). The normalized values of bound activity (% specific binding) were calculated and plotted vs the logarithm of the concentration of the respective test compound. […]

Data set [2] can be described thus: In vivo metabolism, quantification of radiometabolites by radio-HPLC in brain and plasma. Further details: species or system mouse. Conditions: female CD-1 mice, 30 min p.i., i.v. How it is done: The good in vitro results obtained for [^18F]RM365 justified its further evaluation in vivo, and we proceeded with the investigation of radioligand metabolism in mouse. The brain as well as blood samples were obtained from two female CD-1 mice 30 min after intravenous administration of [^18F]RM365. About 90% of the radioactivity detected in the brain samples accounted for intact radioligand (Figure 8), while in blood plasma, the fraction of the intact radioligand represented only 55% of the detected radioactivity (Figure 8B). Accordingly, the absence of a significant fraction of radiometabolites of [^18F]RM365 in the brain indicates the suitability of this radioligand for neuroimaging.
Figure 8 In vivo metabolism of [^18F]RM365. […]
The samples were further processed for subsequent radio-chromatographic analyses. […] The activities of supernatants and precipitates were measured in an γ-counter (1480 WIZARD, Fa. PerkinElmer), and the extraction efficiencies were calculated as the ratio of the radioactivity in the supernatant to the radioactivity in the original sample (supernatant + precipitate). The supernatants from both extractions were combined, concentrated at 70 °C under an argon stream up to a remaining volume of 100 μL, and subsequently analyzed by analytical radio-HPLC with a gradient system as applied in Section 5.2.2.

In data set [1], `CC1(C)Cc2ccc(C#N)cc2[C@@H]1NC(=O)c1cc2cc([18F])ccc2[nH]1` [[^18F]RM365] gave a logD of 3 ± 0.1. Also, the Kd at rat CB2R (rat spleen homogenate, read-out: KD for the rCB2R) was above 10 µM. Besides, the “specific binding to rat spleen homogenates, in words” value on rat CB2R (spleen of a female SPRD rat) is recorded as “no detectable interaction”. The “intact radioligand, fraction of radioactivity in blood plasma” value in data set [2] is listed as 55%.

The values above are taken from article PMC10614203, “Synthesis, Structure–Activity Relationships, Radiofluorination, and Biological Evaluation of [^18F]RM365, a Novel Radioligand for Imaging the Human Cannabinoid Receptor Type 2 (CB2R) in the Brain with PET” (Journal of Medicinal Chemistry, 2023).
